Experimental data reported in patent publication US20240245696A1, “INHIBITORS OF DNA PK AND USES THEREOF” (BioVentures, LLC, priority 2017, published 2024).
Entries after “also recorded” stand apart in the source; their conditions may differ.

What was measured:
[1] = molecular target: DNA-PKcs (Homo sapiens, UniProt P78527); settings: reference [24]; cited from earlier work
[2] = test system: NFAT; assay: Western blot of phosphorylated NFAT (s237) in activated Jurkat cells; type: cell-based, human; settings: Jurkat activated with PMA+PHA
Procedure: Cell Culture: Human peripheral blood mononuclear cells (PBMC,) and Jurkat cells were purchased from ATCC (PCS-800-011, Manassas, VA). Cells were maintained at 37° C. in a humidified atmosphere composed of 5% CO2. Jurkat cells were cultured in RPMI 1640 medium which was supplemented with 10% FCS and human PBMC was cultured in RPMI 1640 medium which was supplemented with 10% FCS and pen/strep. Both Jurkat cells and PBMC were stimulated with PHA (50 ng/mL) and PMA (1 μg/mL) for 24 hours prior to harvesting for IL-2 detection or 6 hours prior for western blot analysis. The NU7441 DNA-PKcs inhibitor was added at varying concentrations at the time of stimulation.
Cell lysis and nuclear extract: Cells were washed with cold PBS twice and centrifuged at 5000 rpm for 5 minutes. For the nuclear extract, pellets were suspended with 800 μL of 10 mN HEPES lysis buffer (10 mM HEPES at pH 7.9, 10 mM KCl, 1 mM DTT, and 1× protease and phosphatase inhibitor) and incubated on ice for 15 minutes. 50 μL of NP-40 (10% in water) was added and the pellets were mixed for 10 seconds. Lysates were centrifuged for 5 minutes at 4° C. at 13,000 rpm. […]

[3] = test system: IL-2; assay: qPCR of IL-2 expression in stimulated Jurkat cells; type: cell-based, human; settings: PHA+PMA stimulation
Procedure: (§1) Evaluation of PD-1 and IL-2 expression: The effect of NU7441 on the expression of PD-1, a protein with immunosuppressant function, and IL-2 was examined in Jurkat cells following stimulation with PHA+PMA and treatment with the inhibitor NU7441. qPCR analysis was performed using primers specific for PD1 and IL-2 sequences.

[4] = test system: IL-2; assay: Secreted IL-2 ELISA, PBMCs stimulated with PHA+PMA; type: cell-based, human; settings: PBMC, activation with PMA+PHA
Procedure: Cell Culture: Human peripheral blood mononuclear cells (PBMC,) and Jurkat cells were purchased from ATCC (PCS-800-011, Manassas, VA). Cells were maintained at 37° C. in a humidified atmosphere composed of 5% CO2. Jurkat cells were cultured in RPMI 1640 medium which was supplemented with 10% FCS and human PBMC was cultured in RPMI 1640 medium which was supplemented with 10% FCS and pen/strep. Both Jurkat cells and PBMC were stimulated with PHA (50 ng/mL) and PMA (1 μg/mL) for 24 hours prior to harvesting for IL-2 detection or 6 hours prior for western blot analysis. The NU7441 DNA-PKcs inhibitor was added at varying concentrations at the time of stimulation. Detection of secreted IL-2: Secreted IL-2 was detected by Human IL-2 ELISA Kit from Thermo Scientific (Waltham, MA). The manufacturer's protocol was followed. Prior to harvesting, cells were treated with PHA (50 ng/ml) and PMA (1 μg/mL) for 24 hours with or without the NU7441 inhibitor. Jurkat cells stimulated with the anti-CD28/CD3 dynabeads were done so according to the manufacturer's protocol at a 1:1 ratio for 24 hours prior to harvesting. After stimulation, supernatant samples of Jurkat cells or PBMCs (2 million cells/mL) were collected and diluted 10 times before the assay. […] Stop solution was added and the absorbance of each well was read at 450 nm using the plate reader.

[5] = test system: NFAT; assay: Immunofluorescence of NFAT nuclear translocation in Jurkat cells; type: cell-based, human; design: dose or concentration left out as unconfirmed; settings: Jurkat activated with PMA+PHA, inhibitor
Procedure: Immunofluorescence of NFAT: Jurkat cells were plated in poly-lysine treated 35 mm dish with glass-bottom (BioTek) overnight. The cells were fixed with 4% formaldehyde and permeabilized with permeabilization solution (0.2% TRITON X-100+OVA solution (0.1 mg/mL), 0.01% sodium azide). NFAT was probed with anti-NFAT2 (ab2796, Abcam) in permeabilization solution overnight at 4° C., and then washed with PBS. Fluorescein (FITC)-conjugated AffiniPure Donkey Anti-Mouse IgG (715-095-151, Jackson ImmunoResearch) was applied to the cells for 1 hour at room temperature. The cells were washed with PBS and ProLong Antifade reagent with DAPI (Molecular Probes) was applied. All samples were analyzed on an Olympus Fluoview FV1000 laser confocal microscope. Images from all microscopy experiments were processed using the FV10-ASW 3.1 Viewer (Olympus).

[6] = test system: PD-1; assay: qPCR of PD-1 expression in stimulated Jurkat cells; type: cell-based, human; settings: PHA+PMA stimulation
Procedure: as §1

[7] = test system: Th1 T cells; assay: qPCR on T cell markers, Th1 differentiation of naïve CD4+ T cells; type: cell-based; settings: naïve CD4+ T cells from mouse spleens
Procedure: qPCR on T cell markers: Naïve CD4+ T cells were isolated by standard methods from the spleens of Balbc mice. T cells were grown in culture and treated with cytokines specific for differentiate into Th1 and Th17 subtypes. Additionally, T cells were cultured with NU7441 and FK506. qPCR was performed looking at the following markers: Batf3, RORyt, IL17, IL22, TGFBeta, Lymphotoxin, T-Bet.

## O=c1cc(N2CCOCC2)oc2c(-c3cccc4c3sc3ccccc34)cccc12 [NU7441]
[1]
  inhibition of DNA-PKcs: potent and specific inhibitor
  interference with ATR or ATM activation: does not interfere
[2]
  NFAT phosphorylation at s237: remained phosphorylated; also recorded: inhibited the dephosphorylation of NFAT
[3]
  IL-2 expression: reduced
[4]
  level of IL-2 produced: significantly reduce IL-2 production
[5]
  nuclear localization of NFAT: nuclear localization was prevented; also recorded: blocked translocation of NFAT to the nucleus
[6]
  expression level of PD-1: did not alter
[7]
  Th1 differentiation (markers T-Bet, Lymphotoxin): promoting the expression of Th1 T cells
